PMC6934871, “High resolution structural and functional analysis of a hemopexin motif protein from Dolichos” (Scientific Reports, 2019)

Biological target: DC25
Assay: SPR (Biacore T200, DC25 immobilized on CM5, […] Langmuir fit); also inhibits peroxidase activity of purified DC25
Type: binding, Lablab purpureus

## O=S(=O)(O)c1ccc(-c2c3nc(c(-c4ccc(S(=O)(=O)O)cc4)c4ccc([nH]4)c(-c4ccc(S(=O)(=O)O)cc4)c4nc(c(-c5ccc(S(=O)(=O)O)cc5)c5ccc2[nH]5)C=C4)C=C3)cc1 [TPPS4]
  Kd: 1210 nM
